Legend:
HmuS [1] = target: T1, HmuS (Bacteroides thetaiotaomicron, UniProt A0A0P0FP54); assay: cryo-EM structure at […] Å with heme; UV/vis hemin titration (Kd); HPLC turnover to PPIX; assay type: binding
T1 construct: gene GAN91_17490; soluble HmuS without its predicted N- and C-terminal membrane-anchoring helices
T1 sequence (A0A0P0FP54 28-1433 limits assumed): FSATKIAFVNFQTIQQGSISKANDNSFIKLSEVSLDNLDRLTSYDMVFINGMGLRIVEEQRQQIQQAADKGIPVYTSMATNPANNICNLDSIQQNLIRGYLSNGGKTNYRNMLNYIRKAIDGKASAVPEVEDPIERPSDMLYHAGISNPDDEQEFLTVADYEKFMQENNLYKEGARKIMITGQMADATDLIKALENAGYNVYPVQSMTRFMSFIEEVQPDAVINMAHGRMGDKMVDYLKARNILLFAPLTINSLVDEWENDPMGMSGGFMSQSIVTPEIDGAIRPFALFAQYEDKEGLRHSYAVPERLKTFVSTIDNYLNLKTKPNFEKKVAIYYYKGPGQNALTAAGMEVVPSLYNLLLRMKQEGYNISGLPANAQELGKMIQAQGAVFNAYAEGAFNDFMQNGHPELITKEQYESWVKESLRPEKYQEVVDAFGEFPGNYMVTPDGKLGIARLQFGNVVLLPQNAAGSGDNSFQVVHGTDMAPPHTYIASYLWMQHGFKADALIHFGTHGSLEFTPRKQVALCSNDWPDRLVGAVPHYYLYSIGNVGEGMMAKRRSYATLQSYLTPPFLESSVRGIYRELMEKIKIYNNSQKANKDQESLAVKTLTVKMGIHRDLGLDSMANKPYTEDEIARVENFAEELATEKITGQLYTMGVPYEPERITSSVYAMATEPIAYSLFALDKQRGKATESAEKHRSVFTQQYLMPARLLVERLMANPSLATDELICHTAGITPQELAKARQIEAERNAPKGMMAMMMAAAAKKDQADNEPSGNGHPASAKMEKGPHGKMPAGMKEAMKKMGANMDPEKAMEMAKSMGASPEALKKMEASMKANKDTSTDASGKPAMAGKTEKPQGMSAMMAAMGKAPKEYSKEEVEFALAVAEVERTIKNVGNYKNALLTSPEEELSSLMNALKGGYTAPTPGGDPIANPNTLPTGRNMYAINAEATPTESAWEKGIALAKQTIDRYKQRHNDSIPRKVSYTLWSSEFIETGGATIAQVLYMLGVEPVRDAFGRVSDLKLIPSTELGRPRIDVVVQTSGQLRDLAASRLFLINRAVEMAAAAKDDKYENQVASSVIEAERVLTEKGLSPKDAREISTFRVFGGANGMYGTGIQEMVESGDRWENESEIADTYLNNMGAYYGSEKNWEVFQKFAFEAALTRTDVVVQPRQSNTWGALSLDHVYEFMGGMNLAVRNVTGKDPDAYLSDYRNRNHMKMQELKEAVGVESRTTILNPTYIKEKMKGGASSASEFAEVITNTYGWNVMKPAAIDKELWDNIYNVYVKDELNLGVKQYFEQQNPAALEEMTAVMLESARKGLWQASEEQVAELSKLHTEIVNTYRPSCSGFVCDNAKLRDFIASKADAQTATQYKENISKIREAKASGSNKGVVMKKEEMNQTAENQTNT

HmuS [2] = target: T2, HmuS (Bacteroides thetaiotaomicron, UniProt A0A0P0FP54, H538A); assay: UV/vis hemin titration of purified mutant; no turnover to PPIX; assay type: binding
T2 construct: gene GAN91_17490; soluble HmuS without its predicted N- and C-terminal membrane-anchoring helices

For `C=CC1=C(C)C2=Cc3c(C=C)c(C)c4[n]3[Fe][n]3c(c(C)c(CCC(=O)O)c3=CC3=NC(=C4)C(C)=C3CCC(=O)O)=CC1=N2` [heme], the Kd (HmuS [1]) was 6 ± 6 µM and the Kd (HmuS [2]) was 1.4 ± 0.1 µM.

Reference: article PMC12583661, “Commensal gut bacteria employ de-chelatase HmuS to harvest iron from heme” (The EMBO Journal, 2025)
